This is an account of results in article PMC4556614 (PLoS ONE, 2015).

The target in series [1] is T1, OCT2 (Homo sapiens, UniProt O15244). Nature of the series: Inhibition of OCT2-mediated [3H]MPP+ uptake in HEK-OCT2 cells. The conditions noted are these: for % Inhibition of OCT2-dependent MPP+ uptake at 20 µM (mean ± SEM): test drug 20 µM.
In series [2] the test system is OCT2. Further details: method as in earlier work. The conditions noted are these: drug 20 μM; HEK 293 cells overexpressing OCT2; ref 7 (Kido et al.); cited from earlier work.
For series [3] the following is noted: ref 16 (Regenthal et al.), cited from earlier work; for Cmax,u: Cmax of unbound drug in humans; for Cmax: maximum steady-state plasma concentration in humans.
Series [4] deals with T1, OCT2. Nature of the series: Inhibition of OCT2-mediated [14C]metformin uptake in HEK-OCT2 cells. To be noted: for % Inhibition of OCT2-dependent MF uptake at 200 µM (mean ± SEM) / IC50 / % Inhibition of OCT2-dependent MF uptake at 20 µM (mean ± SEM): human, pH 7.3; for IC50 values, OCT2-mediated metformin transport (in words): potent inhibitors, confirmed previous findings [19]-[21].

In series [5] the test system is OCT2. To be noted: cited from earlier work.
For series [6] the following is noted: cited from earlier work.
The target of series [7] is T1, OCT2. As to the kind of experiment: Time-dependent substrate uptake into HEK-OCT2 and vector control cells. In kind it is cell-based. The conditions noted are these: metformin 1000 μM; for Time until OCT2-mediated uptake reached steady-state: HEK-OCT2 cells. Also noted: expressed in transfected cells; host or cells: HEK 293 cells, stably transfected (HEK-OCT2); vector control HEK-VC. The method, then: For the transport assays HEK cell lines stably transfected with human OCT2 (HEK-OCT2) or the vector only (HEK-VC) were used. The HEK-OCT2 cell line was established and characterized previously. HEK-OCT2 and HEK-VC cells were seeded in poly-D-lysine (Sigma Aldrich, Taufkirchen, Germany) coated 48-well-plates at a density of 1.2 x 10^5 cells/well. […] In a total incubation volume of 125 μL the final concentrations of the test drugs were 20 or 200 μM. […] Uptake was stopped by washing the cells three times with ice-cold uptake buffer. Afterwards, cells were lysed with 5 mM Tris buffer (pH 7.3) containing 0.1% Triton X-100. The intracellular accumulation of radioactivity was determined by liquid scintillation counting (PerkinElmer, Rodgau-Jügesheim, Germany) and protein concentration of each lysate was measured with bicinchonic acid assay (BCA Protein Assay Kit, Thermo Fisher Scientific, Waltham, MA, USA). We performed two to eight experiments each on at least two separate days, i.e., n = 4–16. […] The percentage of uptake inhibition was calculated as: Inhibition (%) = 100 –(V / V 0 * 100), where V and V 0 are the net uptake rates with and without test drug.
Data are presented as the mean ± standard error (4–8 experiments each on two to four separate days, i.e., n = 8–29).

Setting [8] is: MPP+ 50 μM, 3 min, net uptake HEK-OCT2 minus HEK-VC.
Setting [9] is: test drug 200 µM, MPP+ 50 μM, 3 min, net uptake HEK-OCT2 minus HEK-VC.
[10] abbreviates: coadministration of lansoprazole.
The mark [11] stands for this setting: coadministration with pantoprazole.

T1 sequence (O15244 whole entry): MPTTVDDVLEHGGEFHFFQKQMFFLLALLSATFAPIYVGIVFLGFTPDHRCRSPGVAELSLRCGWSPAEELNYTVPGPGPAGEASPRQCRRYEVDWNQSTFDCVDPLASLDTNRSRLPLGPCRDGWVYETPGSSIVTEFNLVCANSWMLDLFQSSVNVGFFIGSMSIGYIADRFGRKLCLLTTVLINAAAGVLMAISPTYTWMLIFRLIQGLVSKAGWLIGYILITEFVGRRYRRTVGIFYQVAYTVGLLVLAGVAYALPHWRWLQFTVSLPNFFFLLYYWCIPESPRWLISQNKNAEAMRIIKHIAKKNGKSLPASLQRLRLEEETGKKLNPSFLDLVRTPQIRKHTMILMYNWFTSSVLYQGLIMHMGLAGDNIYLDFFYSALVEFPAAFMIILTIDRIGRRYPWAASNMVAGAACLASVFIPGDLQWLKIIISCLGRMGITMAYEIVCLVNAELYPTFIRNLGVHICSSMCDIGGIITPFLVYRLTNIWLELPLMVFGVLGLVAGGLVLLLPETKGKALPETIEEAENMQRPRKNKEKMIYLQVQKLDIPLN

By Cmax is commonly meant the peak of the concentration-time curve. Broadly, the IC50 is the midpoint of a concentration-inhibition curve. Higher therefore signals lower potency. Regarding `CN(C)CCC=C1c2ccccc2CCc2ccccc21` [Amitriptyline], the “% Inhibition of OCT2-dependent MPP+ uptake at 20 µM (mean ± SEM)” value on OCT2 [1] (setting [8]) came out at 58.4 ± 2.8%. For the same compound, at OCT2 [1] (MPP+ 50 μM, 3 min, net uptake HEK-OCT2 minus HEK-VC, listed as amitriptyline), the “% Inhibition of OCT2-dependent MPP+ uptake at 20 µM (mean ± SEM)” value was “more than 50%”. The “% Inhibition of OCT2-dependent MPP+ uptake at 200 µM (mean ± SEM)” value on OCT2 [1] (setting [9]) worked out at 97.8 ± 0.6%. The “Inhibition of OCT2-mediated ASP+ uptake” value with OCT2 [2] is reported as “more than 50%”. Also, in series [3], the “Cmax,u” value is 0.04 µM and the Cmax is 1.1 µM. For the same compound, on OCT2 [4], the “Cmax,u / IC50” value is listed as 0.08; the “% Inhibition of OCT2-dependent MF uptake at 200 µM (mean ± SEM)” value was 101.7 ± 2.2%; the midpoint of inhibition, the IC50, lay at 0.51 µM; the “IC50 values, OCT2-mediated metformin transport (in words)” value (“IC50 values” below) is on record as “low micromolar range”.

On to `CN/C(=N/CCSCc1nc[nH]c1C)NC#N` [Cimetidine], for which, in the series on OCT2 [5], the “Affinity for MATEs compared with OCT2” value is reported as “higher affinity for MATEs than for OCT2” and the “Inhibitor of OCT2 (in words)” value is “rather weak inhibitor”.

With `CN(C)CCCN1c2ccccc2CCc2ccc(Cl)cc21` [Clomipramine], at OCT2 [1] (setting [8]), the “% Inhibition of OCT2-dependent MPP+ uptake at 20 µM (mean ± SEM)” value amounted to 90.3 ± 1.5%. Further, the “% Inhibition of OCT2-dependent MPP+ uptake at 200 µM (mean ± SEM)” value at OCT2 [1] (setting [9]) came out at 98.8 ± 3.0%. In addition, the “Inhibition of OCT2-mediated ASP+ uptake” value in the series on OCT2 [2] is “more than 50%”. For the same compound, the “% Inhibition of OCT2-dependent MF uptake at 200 µM (mean ± SEM)” value at OCT2 [4] was 99.5 ± 3.7.

With `CN(C)CCC=C1c2ccccc2COc2ccccc21` [Doxepin], in the series on OCT2 [2], the “Inhibition of OCT2-mediated ASP+ uptake” value was “more than 50%”. For the same compound, in series [3], the “Cmax,u” value was 0.25 µM and the Cmax was 1.3 µM. Moreover, at OCT2 [4], the “% Inhibition of OCT2-dependent MF uptake at 200 µM (mean ± SEM)” value was 99.3 ± 0.7 and the IC50 worked out at 0.25 µM.

`Cc1c(OCC(F)(F)F)ccnc1C[S+]([O-])c1nc2ccccc2[nH]1` (centres unmarked) [Lansoprazole]: the “% Inhibition of OCT2-dependent MPP+ uptake at 20 µM (mean ± SEM)” value at OCT2 [1] (setting [8]) worked out at 22.1 ± 5.3%. For the same compound, the “% Inhibition of OCT2-dependent MPP+ uptake at 200 µM (mean ± SEM)” value at OCT2 [1] (setting [9]) worked out at 90.1 ± 1.8%. Moreover, in series [6] (setting [10]), the “Decrease of metformin renal clearance” value is 13%, the “Increase of AUC of metformin” value is listed as 17% and the “Increase of Cmax of metformin” value was 15%. Further, in series [3], the “Cmax,u” value is 1.20 µM and the Cmax is 6 µM. Also, on OCT2 [4], the “% Inhibition of OCT2-dependent MF uptake at 20 µM (mean ± SEM)” value came to 87.7 ± 1.6; the “% Inhibition of OCT2-dependent MF uptake at 200 µM (mean ± SEM)” value came to 103.0 ± 2.7; half-maximal inhibition (IC50) was put at 3.28 µM; the “IC50 values” value is listed as “low micromolar range”.

`C[n+]1ccc(-c2ccccc2)cc1` [MPP^+, 1-methyl-4-phenylpyridinium]: the “Uptake ratio OCT2 cells vs. vector control cells” value at OCT2 [7] (MPP+ 50 μM, 3 min, no inhibitor) stood at 3.2. In addition, the “Time until OCT2-mediated uptake reached steady-state” value on OCT2 [7] (MPP+ 50 μM) is recorded as “approximately 15 min”.

For the compound `CN(C)C(=N)N=C(N)N` [Metformin], the “Time until OCT2-mediated uptake reached steady-state” value on OCT2 [7] (MPP+ 50 μM) is “approximately 15 min”. On OCT2 [7] (3 min, HEK-VC, no inhibitor), the “Uptake of metformin in vector control cells” value amounted to 227 ± 22.1 pmol/mg/min. Besides, the “Uptake of metformin in HEK-OCT2 cells” value on OCT2 [7] (3 min, no inhibitor) worked out at 5946 ± 294.0 pmol/mg/min.

Take `COc1ccc2[nH]c([S+]([O-])Cc3ncc(C)c(OC)c3C)nc2c1` (centres unmarked) [Omeprazole]: on OCT2 [1] (setting [8]), the “% Inhibition of OCT2-dependent MPP+ uptake at 20 µM (mean ± SEM)” value was 56.0 ± 4.0%. Moreover, the “% Inhibition of OCT2-dependent MPP+ uptake at 20 µM (mean ± SEM)” value at OCT2 [1] (MPP+ 50 μM, 3 min, net uptake HEK-OCT2 minus HEK-VC, listed as omeprazole) is recorded as “more than 50%”. At OCT2 [1] (setting [9]), the “% Inhibition of OCT2-dependent MPP+ uptake at 200 µM (mean ± SEM)” value worked out at 93.0 ± 0.9%. Moreover, in the series on OCT2 [2], the “Inhibition of OCT2-mediated ASP+ uptake” value was “more than 50%”. On OCT2 [4], the “% Inhibition of OCT2-dependent MF uptake at 200 µM (mean ± SEM)” value was determined as 107.4 ± 4.3 and the “IC50 values” value is listed as “low micromolar range”.

For the compound `COc1ccnc(C[S+]([O-])c2nc3ccc(OC(F)F)cc3[nH]2)c1OC` (centres unmarked) [Pantoprazole], the “% Inhibition of OCT2-dependent MPP+ uptake at 200 µM (mean ± SEM)” value on OCT2 [1] (human, pH 7.3) is 101.7 ± 4.4. Also, in series [6] (setting [11]), the “AUC for metformin greater following coadministration” value is given as 15% and the “Cmax for metformin greater following coadministration” value is on record as 15%. In series [3], the “Cmax,u” value was 0.23 µM and the Cmax was 11.4 µM. In addition, at OCT2 [4], the “% Inhibition of OCT2-dependent MF uptake at 200 µM (mean ± SEM)” value came out at 98.9 ± 0.6 and inhibition was half-maximal at 0.56 µM (IC50).

As for `N[C@@H](CC(=O)N1CCn2c(nnc2C(F)(F)F)C1)Cc1cc(F)c(F)cc1F` [Sitagliptin], the “% Inhibition of OCT2-dependent MPP+ uptake at 20 µM (mean ± SEM)” value on OCT2 [1] (setting [8]) is listed as -8.2 ± 7.8%. Also, the “% Inhibition of OCT2-dependent MPP+ uptake at 200 µM (mean ± SEM)” value on OCT2 [1] (setting [9]) turned out to be 22.7 ± 6.0%. In addition, the “Effect on steady-state pharmacokinetics of either agent” value in series [6] (co-administration of sitagliptin and metformin, patients with type 2 diabetes) is given as “did not meaningfully alter”. Moreover, in series [3], the “Cmax,u” value is 1.50 µM and the Cmax was 2.3 µM. For the same compound, on OCT2 [4], the “% Inhibition of OCT2-dependent MF uptake at 20 µM (mean ± SEM)” value was determined as 85.9 ± 1.1; the “% Inhibition of OCT2-dependent MF uptake at 200 µM (mean ± SEM)” value is on record as 97.5 ± 0.1; the IC50 came out at 7.41 µM; the “IC50 values” value is “low micromolar range”.

As to `CCCc1nc2c(C)cc(-c3nc4ccccc4n3C)cc2n1Cc1ccc(-c2ccccc2C(=O)O)cc1` [Telmisartan], on OCT2 [1] (human, pH 7.3), the “% Inhibition of OCT2-dependent MPP+ uptake at 200 µM (mean ± SEM)” value worked out at 93.3 ± 2.8. In the series on OCT2 [2], the “Inhibition of OCT2-mediated ASP+ uptake” value is on record as “more than 50%”. Besides, the “% Inhibition of OCT2-dependent MF uptake at 200 µM (mean ± SEM)” value at OCT2 [4] came out at 99.2 ± 0.2.

`CC(CN(C)C)CN1c2ccccc2CCc2ccccc21` (centres unmarked) [Trimipramine]: the “% Inhibition of OCT2-dependent MPP+ uptake at 20 µM (mean ± SEM)” value at OCT2 [1] (setting [8]) stood at 51.0 ± 10.2%. Further, the “% Inhibition of OCT2-dependent MPP+ uptake at 20 µM (mean ± SEM)” value on OCT2 [1] (MPP+ 50 μM, 3 min, net uptake HEK-OCT2 minus HEK-VC, listed as trimipramine) is given as “more than 50%”. For the same compound, the “% Inhibition of OCT2-dependent MPP+ uptake at 200 µM (mean ± SEM)” value at OCT2 [1] (setting [9]) was found to be 98.6 ± 1.2%. The “Inhibition of OCT2-mediated ASP+ uptake” value in the series with OCT2 [2] is recorded as “more than 50%”. Further, in series [3], the “Cmax,u” value is 0.06 µM and the Cmax is 0.61 µM. On OCT2 [4], the “% Inhibition of OCT2-dependent MF uptake at 200 µM (mean ± SEM)” value turned out to be 100.0 ± 0.8 and the IC50 came out at 0.44 µM.

With `O=C(O[C@H]1C[C@H]2CC[C@@H](C1)[N+]21CCCC1)C(O)(c1ccccc1)c1ccccc1` [Trospium chloride], the “% Inhibition of OCT2-dependent MPP+ uptake at 20 µM (mean ± SEM)” value on OCT2 [1] (setting [8]) was 83.2 ± 2.2%. On OCT2 [1] (setting [9]), the “% Inhibition of OCT2-dependent MPP+ uptake at 200 µM (mean ± SEM)” value is given as 96.7 ± 0.7%. Besides, the “Effect on metformin renal clearance and steady-state pharmacokinetics” value in series [6] (trospium chloride coadministration, healthy volunteers) is “did not alter”. Also, in series [3], the “Cmax,u” value was 0.01 µM and the Cmax was 0.03 µM. For the same compound, at OCT2 [4], the “% Inhibition of OCT2-dependent MF uptake at 200 µM (mean ± SEM)” value was determined as 98.8 ± 0.4 and the midpoint of inhibition, the IC50, lay at 0.07 µM.
